Test results taken from patent publication US12679878B2, “CRF2 receptor agonists and their use in therapy” (SANOFI, priority 2020, dated 2026).
Read-outs that look alike come from different tables or passages of the source. Starred links: 1 amine or outer side, 2 acyl side, 3 side chain; linkers in the order of their positions; H or OH if unused. Non-standard residues stand in square brackets, D forms with d. Residues, ends and D or L forms follow the SMILES beside them. Groups on a side chain read outwards from the residue. *: point of attachment. C18 diacid = O=C(O)CCCCCCCCCCCCCCCCC(=O)*; γGlu = O=C(O)[C@H](CCC(=O)[*:2])N[*:1]; AEEA = NCCOCCOCC(=O)O; Aib = CC(C)(N)C(=O)O

Tests used:
CRF1R receptor = target: T1, CRF1R receptor (Homo sapiens, UniProt P34998); experiment: cAMP activity at anti-target CRF1R, CHO-K1 cell line clone 2 (Example 19.10); assay type: cell-based; settings: CRF1R CHO-K1 clone 2; for EC50: 0% HSA, read-out: EC50 [nM] 0% HSA; for Emax: 100% = Sauvagine at 100 nM
T1 construct: host or cells: CHO-K1 clone 2
T1 sequence (P34998 24-415): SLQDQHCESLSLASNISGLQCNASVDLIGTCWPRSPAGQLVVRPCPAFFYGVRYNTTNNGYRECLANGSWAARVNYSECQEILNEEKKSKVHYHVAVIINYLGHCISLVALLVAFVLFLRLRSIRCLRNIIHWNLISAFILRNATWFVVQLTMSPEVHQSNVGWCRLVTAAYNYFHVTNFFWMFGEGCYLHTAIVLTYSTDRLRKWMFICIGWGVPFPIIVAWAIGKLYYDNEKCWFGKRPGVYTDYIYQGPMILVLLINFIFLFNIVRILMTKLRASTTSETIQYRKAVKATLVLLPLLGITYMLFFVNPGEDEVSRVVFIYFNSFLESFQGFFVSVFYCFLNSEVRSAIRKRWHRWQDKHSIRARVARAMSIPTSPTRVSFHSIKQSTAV
Procedure, shortened: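 A CRF1R-overexpressing CHO-K1 line (clone 2) was grown in F12/10% FBS/G418 and frozen in aliquots before use. The cAMP assay followed the preceding procedure, with 100% activation defined by Sauvagine at 100 nM.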

human CRF2α receptor = target: T2, human CRF2α receptor (Homo sapiens, UniProt Q13324); experiment: cAMP agonism at human CRF2 α receptor in TeloHEAC cells (Example 7); assay type: cell-based; settings: cAMP HTRF, TeloHEAC cells stably expressing human CRF2 α
T2 construct: expressed in transfected cells; host or cells: TeloHEAC
T2 sequence (Q13324 1-411): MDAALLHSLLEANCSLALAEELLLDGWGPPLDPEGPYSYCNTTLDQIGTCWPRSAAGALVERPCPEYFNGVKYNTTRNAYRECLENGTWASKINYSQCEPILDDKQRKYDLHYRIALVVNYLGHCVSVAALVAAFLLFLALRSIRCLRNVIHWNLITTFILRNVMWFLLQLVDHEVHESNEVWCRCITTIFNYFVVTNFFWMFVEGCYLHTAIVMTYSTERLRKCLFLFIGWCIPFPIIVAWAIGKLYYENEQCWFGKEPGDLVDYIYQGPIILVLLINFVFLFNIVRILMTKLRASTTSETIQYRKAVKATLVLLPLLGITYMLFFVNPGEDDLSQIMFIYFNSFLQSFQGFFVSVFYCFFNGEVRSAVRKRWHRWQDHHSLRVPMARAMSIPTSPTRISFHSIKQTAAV
Procedure, shortened: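 Steps: thaw and wash cells; suspend in 1×HBSS, 20 mM HEPES, 0 or 0.1% HSA, 2 mM IBMX; add compound, 30 min RT; lyse with HTRF reagents, 1 h; read 665/620 nm. EC50 calculated, E% versus 1000 nM UCN2.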

[1] = 0% HSA, read-out: EC50 [nM], 0% HSA
[2] = 0.1% HSA, read-out: EC50 [nM], 0.1% HSA

Row | EC50 (CRF1R receptor) [nM] | Emax (CRF1R receptor) [%] | EC50 (human CRF2α receptor; [1]) [nM] | EC50 (human CRF2α receptor; [2]) [nM] | SMILES
1 | > 100 | 0.4 | 0.13 | 4.97 | CC[C@H](C)[C@H](N)C(=O)N[C@H](C(=O)N[C@@H](CC(C)C)C(=O)N[C@@H](CO)C(=O)N[C@@H](CC(C)C)C(=O)N[C@@H](CC(=O)O)C(=O)N[C@H](C(=O)N1CCC[C@H]1C(=O)N[C@H](C(=O)N[C@@H](CCCCN)C(=O)N[C@@H](CC(C)C)C(=O)N[C@@H](CCCCNC(=O)COCCOCCNC(=O)COCCOCCNC(=O)CC[C@H](NC(=O)CCCCCCCCCCCCCCCCC(=O)O)C(=O)O)C(=O)N[C@@H](CCC(N)=O)C(=O)N[C@H](C(=O)N[C@@H](CC(C)C)C(=O)N[C@@H](CC(C)C)C(=O)N[C@@H](CCCCN)C(=O)N[C@@H](CCC(N)=O)C(=O)N[C@@H](CCC(=O)O)C(=O)N[C@@H](CCCNC(=N)N)C(=O)N[C@@H](CCC(N)=O)C(=O)N[C@@H](CCCCN)C(=O)N[C@@H](CCCCN)C(=O)NC(C)(C)C(=O)N[C@@H](CCCNC(=N)N)C(=O)N[C@@H](CCC(N)=O)C(=O)N[C@@H](CCCCN)C(=O)N[C@@H](C)C(=O)N[C@@H](CCC(=O)O)C(=O)N[C@@H](CCCCN)C(=O)N[C@@H](CC(N)=O)C(=O)N[C@@H](CCCCN)C(=O)N[C@@H](CCC(N)=O)C(=O)N[C@H](C(=O)N[C@@H](CC(C)C)C(=O)N[C@@H](C)C(=O)N[C@@H](CCC(N)=O)C(=O)N[C@H](C(N)=O)C(C)C)[C@@H](C)CC)[C@@H](C)CC)[C@@H](C)CC)C(C)C)C(C)C [compound 119] (H-IVLSLDVPIKLK([AEEA-AEEA-γGlu-C18 diacid])QILLKQERQKK[Aib]RQKAEKNKQILAQV-NH2)
2 | > 100 | -1.1 | 0.73 | 41.3 | CC[C@H](C)[C@H](N)C(=O)N[C@H](C(=O)N[C@@H](CC(C)C)C(=O)N[C@@H](CO)C(=O)N[C@@H](CC(C)C)C(=O)N[C@@H](CC(=O)O)C(=O)N[C@H](C(=O)N1CCC[C@H]1C(=O)N[C@H](C(=O)N[C@@H](CCCCN)C(=O)N[C@@H](CC(C)C)C(=O)N[C@@H](CCCCNC(=O)COCCOCCNC(=O)COCCOCCNC(=O)CC[C@H](NC(=O)CCCCCCCCCCCCCCCCC(=O)O)C(=O)O)C(=O)N[C@@H](CCC(N)=O)C(=O)N[C@H](C(=O)N[C@@H](CC(C)C)C(=O)N[C@@H](CC(C)C)C(=O)N[C@@H](CCCCN)C(=O)N[C@@H](CCC(N)=O)C(=O)N[C@@H](CCC(=O)O)C(=O)N[C@@H](CCCNC(=N)N)C(=O)N[C@@H](CCC(N)=O)C(=O)N[C@@H](CCCCN)C(=O)N[C@@H](CCCCN)C(=O)N[C@@H](CCC(N)=O)C(=O)N[C@@H](CCCNC(=N)N)C(=O)N[C@@H](CCC(=O)O)C(=O)N[C@@H](CCCCN)C(=O)N[C@@H](C)C(=O)N[C@@H](CCC(=O)O)C(=O)N[C@@H](CCCCN)C(=O)N[C@@H](CC(N)=O)C(=O)N[C@@H](CCCCN)C(=O)N[C@@H](CCC(N)=O)C(=O)N[C@H](C(=O)N[C@@H](CC(C)C)C(=O)N[C@@H](C)C(=O)N[C@@H](CCC(N)=O)C(=O)N[C@H](C(N)=O)C(C)C)[C@@H](C)CC)[C@@H](C)CC)[C@@H](C)CC)C(C)C)C(C)C [compound 121] (H-IVLSLDVPIKLK([AEEA-AEEA-γGlu-C18 diacid])QILLKQERQKKQREKAEKNKQILAQV-NH2)
3 | > 100 | 6.9 | 0.04 | 1.71 | CC[C@H](C)[C@H](N)C(=O)N[C@H](C(=O)N[C@@H](CC(C)C)C(=O)N[C@@H](CO)C(=O)N[C@@H](CC(C)C)C(=O)N[C@@H](CC(=O)O)C(=O)N[C@H](C(=O)N1CCC[C@H]1C(=O)N[C@H](C(=O)N[C@@H](CCCCN)C(=O)N[C@@H](CC(C)C)C(=O)N[C@@H](CCCCNC(=O)COCCOCCNC(=O)COCCOCCNC(=O)CC[C@H](NC(=O)CCCCCCCCCCCCCCCCC(=O)O)C(=O)O)C(=O)N[C@@H](CCC(N)=O)C(=O)N[C@H](C(=O)N[C@@H](CC(C)C)C(=O)N[C@@H](CC(C)C)C(=O)N[C@@H](CCCCN)C(=O)N[C@@H](CCC(N)=O)C(=O)N[C@@H](CCC(=O)O)C(=O)N[C@@H](CCCNC(=N)N)C(=O)N[C@@H](CCC(N)=O)C(=O)N[C@@H](CCCCN)C(=O)N[C@@H](CCCCN)C(=O)N[C@@H](CCC(N)=O)C(=O)N[C@@H](CCCNC(=N)N)C(=O)N[C@@H](CCC(N)=O)C(=O)N[C@@H](CCC(N)=O)C(=O)N[C@@H](C)C(=O)N[C@@H](CCC(=O)O)C(=O)N[C@@H](CCCCN)C(=O)N[C@@H](CC(N)=O)C(=O)N[C@@H](CCCCN)C(=O)N[C@@H](CCC(N)=O)C(=O)N[C@H](C(=O)N[C@@H](CC(C)C)C(=O)N[C@@H](C)C(=O)N[C@@H](CCC(N)=O)C(=O)N[C@H](C(N)=O)C(C)C)[C@@H](C)CC)[C@@H](C)CC)[C@@H](C)CC)C(C)C)C(C)C [compound 122] (H-IVLSLDVPIKLK([AEEA-AEEA-γGlu-C18 diacid])QILLKQERQKKQRQQAEKNKQILAQV-NH2; N-terminus assumed)
4 | > 100 | 9 | 0.33 | 9.74 | CC[C@H](C)[C@H](N)C(=O)N[C@H](C(=O)N[C@@H](CC(C)C)C(=O)N[C@@H](CO)C(=O)N[C@@H](CC(C)C)C(=O)N[C@@H](CC(=O)O)C(=O)N[C@H](C(=O)N1CCC[C@H]1C(=O)N[C@H](C(=O)N[C@@H](CCCCN)C(=O)N[C@@H](CC(C)C)C(=O)N[C@@H](CCCCNC(=O)COCCOCCNC(=O)COCCOCCNC(=O)CC[C@H](NC(=O)CCCCCCCCCCCCCCCCC(=O)O)C(=O)O)C(=O)N[C@@H](CCC(N)=O)C(=O)N[C@H](C(=O)N[C@@H](CC(C)C)C(=O)N[C@@H](CC(C)C)C(=O)N[C@@H](CCC(=O)O)C(=O)N[C@@H](CCC(N)=O)C(=O)N[C@@H](C)C(=O)N[C@@H](CCCNC(=N)N)C(=O)N[C@@H](CCC(N)=O)C(=O)N[C@@H](CCCCN)C(=O)NC(C)(C)C(=O)N[C@@H](CCC(N)=O)C(=O)N[C@@H](CCCNC(=N)N)C(=O)N[C@@H](C)C(=O)N[C@@H](CCC(N)=O)C(=O)N[C@@H](C)C(=O)N[C@@H](CCC(=O)O)C(=O)N[C@@H](CCCCN)C(=O)N[C@@H](CC(N)=O)C(=O)N[C@@H](CCCCN)C(=O)N[C@@H](CCCNC(=N)N)C(=O)N[C@H](C(=O)N[C@@H](CC(C)C)C(=O)N[C@@H](CCC(=O)O)C(=O)N[C@@H](CCCNC(=N)N)C(=O)N[C@H](C(N)=O)C(C)C)[C@@H](C)CC)[C@@H](C)CC)[C@@H](C)CC)C(C)C)C(C)C [compound 123] (H-IVLSLDVPIKLK([AEEA-AEEA-γGlu-C18 diacid])QILLEQARQK[Aib]QRAQAEKNKRILERV-NH2; N-terminus assumed)
5 | > 100 | -2.5 | 0.11 | 4.37 | CC[C@H](C)[C@H](N)C(=O)N[C@H](C(=O)N[C@@H](CC(C)C)C(=O)N[C@@H](CO)C(=O)N[C@@H](CC(C)C)C(=O)N[C@@H](CC(=O)O)C(=O)N[C@H](C(=O)N1CCC[C@H]1C(=O)N[C@H](C(=O)N[C@@H](CCCCN)C(=O)N[C@@H](CC(C)C)C(=O)N[C@@H](CCCCNC(=O)COCCOCCNC(=O)COCCOCCNC(=O)CC[C@H](NC(=O)CCCCCCCCCCCCCCCCC(=O)O)C(=O)O)C(=O)N[C@@H](CCC(N)=O)C(=O)N[C@H](C(=O)N[C@@H](CC(C)C)C(=O)N[C@@H](CC(C)C)C(=O)N[C@@H](CCCCN)C(=O)N[C@@H](CCC(N)=O)C(=O)N[C@@H](C)C(=O)N[C@@H](CCCNC(=N)N)C(=O)N[C@@H](CCC(N)=O)C(=O)N[C@@H](CCCCN)C(=O)NC(C)(C)C(=O)N[C@@H](CCC(N)=O)C(=O)N[C@@H](CCCNC(=N)N)C(=O)N[C@@H](C)C(=O)N[C@@H](CCC(N)=O)C(=O)N[C@@H](C)C(=O)N[C@@H](CCC(=O)O)C(=O)N[C@@H](CCCCN)C(=O)N[C@@H](CC(N)=O)C(=O)N[C@@H](CCCCN)C(=O)N[C@@H](CCCNC(=N)N)C(=O)N[C@H](C(=O)N[C@@H](CC(C)C)C(=O)N[C@@H](CCC(=O)O)C(=O)N[C@@H](CCCNC(=N)N)C(=O)N[C@H](C(N)=O)C(C)C)[C@@H](C)CC)[C@@H](C)CC)[C@@H](C)CC)C(C)C)C(C)C [compound 124] (H-IVLSLDVPIKLK([AEEA-AEEA-γGlu-C18 diacid])QILLKQARQK[Aib]QRAQAEKNKRILERV-NH2; N-terminus assumed)
